Data from ChEMBL document CHEMBL3616452 (Eur J Med Chem, 2015).
pIC50: −log10 of the molar value.

Target: Nucleoprotein (Influenza A virus (strain A/Wilson-Smith/1933 H1N1), UniProt P15682, S377G)
Test: Binding affinity to Influenza A virus (A/WSN/1933(H1N1)) nucleoprotein S377G mutant transfected in 293T cells assessed as inhibition of RNA dependent RNA polymerase activity
Assay type: cell-based, Influenza A virus (A/Weiss/1943(H1N1))

| Compound | pIC50 |
| --- | --- |
| Cn1c(=O)c2c(-c3ccccc3)n3c(c2n(C)c1=O)C(c1ccccc1F)OCC3(C)C (configuration not stated) | 5.77 |
| Cc1onc(-c2ccccc2Cl)c1C(=O)N1CCN(c2ccc([N+](=O)[O-])cc2)CC1 | 6.52 |
